Our source for the TGI and GI50 values is PubChem BioAssay (NCI).

Test systems include 786-0 renal; ACHN renal; EKVX NSCLC; HL-60(TB) leukemia; HOP-92 NSCLC; KM12 colon; OVCAR-8 ovarian; SF-295 CNS; SK-MEL-5 melanoma; UACC-62 melanoma.
Common to all, as to test: DTP human tumour cell line panel, 48 h

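48-hour exposure; five concentrations; linearly interpolated endpoints. At the GI50, growth is halved. Definition used: TGI = concentration required for complete inhibition of growth.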 Some results are limits rather than exact numbers.

Consider `CSc1cccc(NC(=O)OC2CCCCCCCCCCC2)c1`, for which the TGI (usually the concentration giving total growth inhibition) in the assay on 786-0 renal was 53.9 µM; in the assay on ACHN renal, greater than 100 µM; in the assay with EKVX NSCLC it was 57.6 µM; in the assay on HL-60(TB) leukemia, 35.1 µM; with HOP-92 NSCLC, greater than 100 µM; in the assay with KM12 colon, 31.5 µM. In addition, the TGI in the assay on OVCAR-8 ovarian was greater than 100 µM; in the assay with SF-295 CNS, 57.9 µM; in the assay with SK-MEL-5 melanoma it was 29.1 µM; in the assay on UACC-62 melanoma, 52.7 µM.
With `C=CS(=O)(=O)CCN1CC1`, the TGI with 786-0 renal, in the assay with ACHN renal, in the assay on HL-60(TB) leukemia, in the assay on HOP-92 NSCLC, in the assay with KM12 colon and in the assay on OVCAR-8 ovarian was greater than 10 µM each time. The TGI in the assay with SF-295 CNS, with SK-MEL-5 melanoma and in the assay on UACC-62 melanoma was greater than 10 µM throughout.
Regarding `O=C1C=CC(O)C2C1CC13SSC4(CC5C(=O)C=CC(O)C5N4C1=O)C(=O)N23` (stereo not given), the TGI stood at 0.49 µM in the assay with 786-0 renal; 0.835 µM in the assay with ACHN renal; 2.33 µM with EKVX NSCLC; 0.573 µM in the assay with HOP-92 NSCLC; 0.342 µM in the assay with KM12 colon; 0.271 µM with OVCAR-8 ovarian. For the same compound, the TGI in the assay with SF-295 CNS is 2.94 µM; in the assay on SK-MEL-5 melanoma, 1.06 µM; in the assay with UACC-62 melanoma, 0.622 µM.
As to `CCCNc1nc2ccccc2c2c1S(=O)(=O)c1ccc(Cl)cc1C2=O`, the GI50 (as a rule, the concentration at which growth is held to half of that of the control) with 786-0 renal was 1.7 µM; in the assay on EKVX NSCLC, 1.38 µM; in the assay on HL-60(TB) leukemia it was 1490 nM; with HOP-92 NSCLC, 0.0899 µM; in the assay with KM12 colon it was 1.49 µM; with OVCAR-8 ovarian it was 1.58 µM. The GI50 in the assay on SF-295 CNS was 1.67 µM; in the assay with SK-MEL-5 melanoma it was 1.51 µM; in the assay on UACC-62 melanoma, 1.28 µM. For the same compound, the TGI was greater than 50 µM with 786-0 renal; greater than 50 µM with EKVX NSCLC; greater than 50 µM in the assay on HL-60(TB) leukemia; 0.475 µM with HOP-92 NSCLC; greater than 50 µM in the assay on KM12 colon; greater than 50 µM in the assay on OVCAR-8 ovarian. Moreover, the TGI in the assay with SF-295 CNS, with SK-MEL-5 melanoma and with UACC-62 melanoma was greater than 50 µM in each case.
For the compound `COc1ccc(OC)c(Nc2nc(-c3c(C)nc4sccn34)cs2)c1`, the GI50 is 32.3 µM with 786-0 renal; 38.6 µM in the assay with ACHN renal; greater than 100000 nM in the assay on HL-60(TB) leukemia; 8.63 µM with HOP-92 NSCLC; greater than 100 µM in the assay on KM12 colon; 7.22 µM in the assay with OVCAR-8 ovarian. Besides, the GI50 is 41.4 µM in the assay on SF-295 CNS, 34.9 µM in the assay on SK-MEL-5 melanoma and 51.8 µM with UACC-62 melanoma. Besides, the TGI is greater than 100 µM in the assay with 786-0 renal; greater than 100 µM in the assay with ACHN renal; greater than 100 µM in the assay on HL-60(TB) leukemia; 98.4 µM in the assay on HOP-92 NSCLC; greater than 100 µM in the assay on KM12 colon; greater than 100 µM with OVCAR-8 ovarian. Besides, the TGI in the assay with SF-295 CNS, in the assay on SK-MEL-5 melanoma and in the assay on UACC-62 melanoma was greater than 100 µM throughout.
With `Cc1ccc(-c2nc(N3CCCNCC3)c3oc(-c4ccc(C)cc4)nc3n2)cc1`, the GI50 in the assay on 786-0 renal was 1.76 µM; in the assay with ACHN renal, 1.75 µM; in the assay with EKVX NSCLC, 4.09 µM; with HL-60(TB) leukemia, 179 nM; with HOP-92 NSCLC, 1.01 µM; with KM12 colon it was 1.72 µM. Also, the values for the GI50 in the assay with OVCAR-8 ovarian, with SF-295 CNS and with UACC-62 melanoma were 2.11 µM, 1.86 µM and 1.67 µM, respectively. Further, the TGI in the assay with 786-0 renal was 3.25 µM; in the assay on ACHN renal, 3.13 µM; in the assay on EKVX NSCLC it was greater than 100 µM; in the assay with HL-60(TB) leukemia it was 0.371 µM; with HOP-92 NSCLC, 2.3 µM; with KM12 colon it was 3.2 µM. In addition, the results for the TGI in the assay with OVCAR-8 ovarian, with SF-295 CNS and in the assay on UACC-62 melanoma were 4.22 µM, 3.54 µM and 3.08 µM, respectively.
With `CC(C)CCN[C@@H]1CCc2cc(O)c(N3CC(=O)NS3(=O)=O)c(F)c2C1`, the GI50 in the assay with 786-0 renal is greater than 100 µM; with ACHN renal, greater than 100 µM; with EKVX NSCLC it was greater than 100 µM; with HL-60(TB) leukemia it was greater than 100000 nM; with HOP-92 NSCLC, 16.1 µM; with KM12 colon it was greater than 100 µM. In addition, the GI50 in the assay with OVCAR-8 ovarian, with SF-295 CNS and in the assay on SK-MEL-5 melanoma was greater than 100 µM each time. Also, the TGI with 786-0 renal, with ACHN renal, in the assay with EKVX NSCLC, in the assay with HL-60(TB) leukemia, with HOP-92 NSCLC and in the assay with KM12 colon was greater than 100 µM throughout. In addition, the TGI in the assay with OVCAR-8 ovarian, with SF-295 CNS and with SK-MEL-5 melanoma was greater than 100 µM each time.
Regarding `O=C(/C=C1/Nc2ccc([N+](=O)[O-])cc2NC1O)c1cccc([N+](=O)[O-])c1` (stereo not given), the TGI in the assay with 786-0 renal is 47.8 µM; with ACHN renal, greater than 100 µM; with EKVX NSCLC it was greater than 100 µM; in the assay on HL-60(TB) leukemia, greater than 100 µM; with HOP-92 NSCLC it was greater than 100 µM; in the assay on OVCAR-8 ovarian, 48.7 µM. Also, the values for the TGI in the assay with SF-295 CNS, in the assay with SK-MEL-5 melanoma and with UACC-62 melanoma were 38.3 µM, greater than 100 µM and greater than 100 µM, respectively.
For `C=CCCCc1ccc(C(O)CCCCCCCCCCCC)o1` (stereo not given), the GI50 in the assay with 786-0 renal is 15.2 µM; in the assay with ACHN renal, 16.8 µM; with EKVX NSCLC, 20.1 µM; in the assay with HOP-92 NSCLC, 15.4 µM; in the assay with KM12 colon it was 21.3 µM; in the assay with OVCAR-8 ovarian, 20.6 µM. The results for the GI50 in the assay on SF-295 CNS, with SK-MEL-5 melanoma and in the assay on UACC-62 melanoma were 18.2 µM, 18.5 µM and 17.7 µM, respectively. Moreover, the TGI in the assay with 786-0 renal came out at 28.5 µM; with ACHN renal, 30.4 µM; in the assay on EKVX NSCLC, 37.5 µM; with HOP-92 NSCLC, 31.9 µM; with KM12 colon, 46 µM; in the assay on OVCAR-8 ovarian, 44.9 µM. The TGI in the assay on SF-295 CNS turned out to be 46.6 µM; with SK-MEL-5 melanoma it was 37.2 µM; with UACC-62 melanoma, 43 µM.
For `O=C1NC(=O)C2C1N(Cc1ccccc1)C(=O)N2Cc1ccccc1` (stereo not given), the TGI in the assay with 786-0 renal, in the assay on ACHN renal, in the assay on EKVX NSCLC, in the assay on HL-60(TB) leukemia, in the assay on HOP-92 NSCLC and in the assay on KM12 colon was greater than 100 µM throughout. Besides, the TGI with SF-295 CNS, in the assay on SK-MEL-5 melanoma and with UACC-62 melanoma was greater than 100 µM in each case.
`CNC(=O)OCC1C2=C(C(=O)C(C)=C(N)C2=O)N2CC3C(N3C)C12OC` (stereo not given): the TGI in the assay with 786-0 renal is 21.2 µM; in the assay on ACHN renal, 26.7 µM; with EKVX NSCLC, greater than 100 µM; in the assay with HL-60(TB) leukemia it was 21.1 µM; in the assay with HOP-92 NSCLC it was greater than 100 µM; in the assay with OVCAR-8 ovarian, greater than 100 µM. The TGI is 67 µM in the assay on SF-295 CNS, 23.8 µM in the assay with SK-MEL-5 melanoma and 22.2 µM in the assay with UACC-62 melanoma.
